Literature values, collected in patent US20180116920A1, “MULTI-STEP PROCESS FOR NO PRODUCTION” (BSN medical GmbH, priority 2015, published 2018).
Blank lines part the entries; values can stand above or below the compound they belong to.

Experiments:
[1] = generally assumed

Compound: nitrogen monoxide
- maximum solubility of NO in aqueous solution [1]: approximately 2 mM

- standard redox potential (at pH 7 and 25° C.): −0.04 V
Compound: O=C1O[C@H]([C@@H](O)CO)C(O)=C1O [ascorbic acid]

- redox potential (cysteine-cystine, 25° C., pH 7.0): −0.2 Volt
Compound: N[C@@H](CS)C(=O)O [cysteine]
